In ChEMBL document CHEMBL3580582, “The Cephalostatins. 23. Conversion of Hecogenin to a Steroidal 1,6-Dioxaspiro[5.5]nonane Analogue for Cephalostatin 11” (2015):
≈ marks a conversion by molar mass, not a printed value.

System: P388
Assay: Cytotoxicity against mouse P388 cells assessed as growth inhibition after 48 hrs by coulter particle counter analysis
Assay type: functional
Settings: P388, 48 h, read-out: ED50 (the source's name)

Row | Compound | EC50 [µg/mL]
1 | CC(=O)OC[C@]1(C)CC[C@@]2(O[C@H]3C[C@H]4[C@@H]5CC[C@H]6CC(=O)CC[C@]6(C)[C@H]5CC(=O)[C@]4(C)[C@H]3[C@@H]2C)O1 | > 10
2 | CC(=O)O[C@H]1CC[C@@]2(C)[C@@H](CC[C@@H]3[C@@H]2CC(=O)[C@@]2(C)[C@H]3C[C@@H]3OC(CCC(C)CCl)=C(C)[C@@H]32)C1 (some centres undefined) | > 100
3 | CC1=C(CCC(C)CCl)O[C@H]2C[C@H]3[C@@H]4CC[C@H]5CC(=O)CC[C@]5(C)[C@H]4CC(=O)[C@]3(C)[C@@H]12 (some centres undefined) | > 100
4 | C=C(C)CCC1=C(C)[C@H]2[C@H](C[C@H]3[C@@H]4CC[C@H]5CC(=O)CC[C@]5(C)[C@H]4CC(=O)[C@@]32C)O1 | 14.5 (≈ 35.3 µM)
5 | CC1=C(CC[C@](C)(O)CO)O[C@H]2C[C@H]3[C@@H]4CC[C@H]5CC(=O)CC[C@]5(C)[C@H]4CC(=O)[C@]3(C)[C@@H]12 | 23.4 (≈ 52.6 µM)
6 | CC(=O)OC[C@@](C)(O)CCC1=C(C)[C@H]2[C@H](C[C@H]3[C@@H]4CC[C@H]5CC(=O)CC[C@]5(C)[C@H]4CC(=O)[C@@]32C)O1 | 19.3 (≈ 39.7 µM)

System: not listed separately
Assay: Cytotoxicity against human NCI60 cells by SRB assay
Assay type: functional
Settings: not given

Row | Compound | GI50 [nM]
7 | C[C@@H]1[C@]2(O[C@H]3C=C4[C@@H]5CC[C@H]6Cc7nc8c(nc7C[C@]6(C)[C@H]5C[C@@H](O)[C@]4(C)[C@]31O)C[C@@H]1CC[C@H]3C4=C[C@@H]5O[C@]6(CCC(C)(C)O6)[C@@H](C)[C@@H]5[C@@]4(C)[C@H](O)C[C@@H]3[C@@]1(C)C8)O[C@@](C)(CO)C[C@H]2O | 0.48
8 | C[C@@H]1[C@]2(O[C@H]3C=C4[C@@H]5CC[C@H]6Cc7nc8c(nc7C[C@]6(C)[C@H]5C[C@@H](O)[C@]4(C)[C@]31O)C[C@@H]1CC[C@H]3C4=C[C@@H]5O[C@]6(CCC(C)(C)O6)[C@@H](C)[C@@H]5[C@@]4(C)[C@H](O)C[C@@H]3[C@@]1(C)C8)O[C@](C)(CO)C[C@H]2O | 14

System: not listed separately
Assay: Cytotoxicity against human NCI60 cells
Assay type: functional
Settings: not given

Row | Compound | GI50 [nM]
9 | C[C@@H]1[C@]2(O[C@H]3C=C4[C@@H]5CC[C@H]6Cc7nc8c(nc7C[C@]6(C)[C@H]5C[C@@H](O)[C@]4(C)[C@]31O)C[C@@H]1CC[C@H]3C4=CC[C@@H]5[C@H](C)[C@@]6(OC[C@]45C(=O)C[C@@H]3[C@@]1(C)C8)OC(C)(C)C[C@H]6O)O[C@](C)(CO)C[C@H]2O [CEPHALOSTATIN 1] | 1.8
